Test results reported in US10093675B2, “6,8-disubstituted-9-(heterocyclyl)purines, compositions containing these derivatives and their use in cosmetic and medicinal applications” (USTAV EXPERIMENTALNI BOTANIKY AV CR, V.V.I., priority 2014, dated 2018).

Key:
[1] = test system: human diploid fibroblasts (HDF cells; HDF25, HDF45, HDF80); experiment: Inhibition of human cell aging: senescent cells by beta-galactosidase staining; type: cell-based; conditions: for SENESCENT CELLS (%) HDF25: human diploid fibroblasts passage 25, beta-galactosidase staining; for SENESCENT CELLS (%) HDF45: human diploid fibroblasts passage 45, beta-galactosidase staining; for SENESCENT CELLS (%) HDF80: human diploid fibroblasts passage 80, beta-galactosidase staining
In short: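 Cells of passages 25, 45 and 80 fixed 5 min at room temperature in 2% formaldehyde/0.2% glutaraldehyde in PBS, then incubated at 37° C with beta-galactosidase substrate. Senescent cells identified by blue staining.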

[2] = test system: excised wheat leaf tips (Triticum aestivum cv. Hereward); experiment: Senescence inhibition on winter wheat leaf segments (retention of chlorophyll); type: in vivo; conditions: 10^−4 mol/L; 96 hours in the dark; activity of kinetin set at 100%
In short: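 First-leaf tips from 7-day-old wheat seedlings stood with their bases in test solution for 96 h in the dark at 25° C. Chlorophyll was then extracted in hot 80% ethanol and read at 665 nm. Activity at each compound's best concentration is relative to 10^−4 M kinetin (100%), as means of five replicates.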

[3] = test system: detached leaves of Triticum aestivum cv. Hereward; experiment: Membrane lipid peroxidation (MDA, TBA method) in detached wheat leaves during dark senescence; type: in vivo; conditions: four days in the dark, Control 18.9 (±2.2)
In short: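 Leaf tips from 7-day wheat seedlings were kept with compound or kinetin for four days in the dark. 100 mg tissue was extracted in 80% methanol and heated 30 min at 95 °C with 0.5% TBA/0.1% TCA. MDA came from A532 minus A600, using 155 mM^−1cm^−1.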

[4] = Radical scavenging activity determined by ORAC (Oxygen Radical Absorbance Capacity); type: biochemical; conditions: Mean ± SD (n = 3); net area under the curve relative to trolox, equimolar basis
Method: The ability of compounds to scavenge free radicals in vitro was determined by Oxygen Radical Absorbance Capacity (ORAC) method. Fluorescein (100 μL, […]) and 25 μL of compound solution were added into each working well in a 96-well microplate preincubated at 37° C. Thereafter, 25 μL of 250 mM AAPH was quickly added, microplate was shaken for 5 s and the fluorescence (Ex. 485 nm, Em. 510 nm) was read every 3 min over 90 min by using microplate reader Infinite 200 (TECAN, Switzerland). The net area under the curve was used to express antioxidant activity relative to trolox which was used as a standard.

Row | Compound | SENESCENT CELLS (%) HDF25 [1] [%] | SENESCENT CELLS (%) HDF45 [1] [%] | SENESCENT CELLS (%) HDF80 [1] [%] | Activity (%) (s.d.), retention of chlorophyll [2] | MDA (nmol/g FW) [3] | ORAC (compound/trolox ratio) [4]
1 | C/C(=C\CNc1ncnc2c1nc(Br)n2C1CCCCO1)CO (stereo not shown) [Compound 24, (E)-8-Bromo-6-(4-hydroxy-3-methylbut-2-en-1-ylamino)-9-(tetrahydropyran-2-yl)-9H-purine] | 3 | 5 | 21 | 123 (±6) % | 11.4 (±0.9) nmol/g FW | 
2 | Fc1cccc(CNc2ncnc3c2nc(Br)n3C2CCCCO2)c1 (stereo not shown) [Compound 26] | 2 | 5 | 19 | 117 (±5) % |  | 
3 | Fc1ccc(CNc2ncnc3c2nc(Br)n3C2CCCCO2)cc1F (stereo not shown) [Compound 27] | 2 | 4 | 21 | 124 (±4) % |  | 
4 | C/C(=C\CNc1ncnc2c1nc(Cl)n2C1CCCO1)CO (stereo not shown) [Compound 64] | 3 | 4 | 8 | 123 (±4) % |  | 
5 | COc1cccc(CNc2ncnc3c2nc(Cl)n3C2CCCO2)c1 (stereo not shown) [Compound 69] | 3 | 4 | 14 | 115 (±4) % |  | 
6 | COc1nc2c(NCc3ccco3)ncnc2n1C1CCCCO1 (stereo not shown) [Compound 124, 6-Furfurylamino-8-methoxy-9-(tetrahydropyran-2-yl)-9H-purine] |  |  |  |  | 10.3 (±0.7) nmol/g FW | 30.1 ± 3.1
7 | CSc1nc2c(NCc3ccco3)ncnc2n1C1CCCCO1 (stereo not shown) [Compound 145, 6-Furfurylamino-8-methylsulfanyl-9-(tetrahydropyran-2-yl)-9H-purine] |  |  |  |  | 9.6 (±0.8) nmol/g FW | 1.3 ± 0.1
